Laboratory results reported in patent US7176234B2, “Derivatives of gambogic acid and analogs as activators of caspases and inducers of apoptosis” (priority 2002, dated 2007).
Entries after “also recorded” stand apart in the source; their conditions may differ. Where two headings read alike, the source gives them in different places.

Experiments:
T-47D = assay: Caspase cascade activation / apoptosis induction assay (N-(Ac-DEVD)-N'-ethoxycarbonyl-R110 substrate) in T-47D cells; type: cell-based, Human; settings: T47D cells
Description: Human breast cancer cell lines T-47D and ZR-75-1 were grown according to media component mixtures designated by American Type Culture Collection+10% FCS (Invitrogen Corporation), in a 5% CO2-95% humidity incubator at 37° C. T-47D and ZR-75-1 cells were maintained at a cell density between 30 and 80% confluency and for HL-60 at a cell density of 0.1 to 0.6×10^6 cells/ml. Cells were harvested at 600×g and resuspended at 0.65×10^6 cells/mL into appropriate media+10% FCS. An aliquot of 45 μl of cells was added to a well of a 96-well microtiter plate containing 5 μl of a 10% DMSO in RPMI-1640 media solution containing 1.6 to 100 μM of gambogic acid or other test compound (0.16 to 10 μM final). An aliquot of 45 μl of cells was added to a well of a 96-well microtiter plate containing […] of a 10% DMSO in RPMI-1640 media solution without test compound as the control sample. The samples were mixed by agitation and then incubated at 37° C. for 24 h in a 5% CO2-95% humidity incubator. After incubation, the samples were removed from the incubator and 50 μl of a solution containing 20 μM of N-(Ac-DEVD)-N′-ethoxycarbonyl-R110 fluorogenic substrate SEQ ID NO:1 (Cytovia, Inc.; U.S. Pat. No. 6,335,429), 20% sucrose (Sigma), 20 mM DTT (Sigma), 200 mM NaCl (Sigma), 40 mM Na PIPES buffer pH 7.2 (Sigma), and 500 μg/mL lysolecithin (Calbiochem) was added. The samples were mixed by agitation and incubated at room temperature. Using a fluorescent plate reader (Model 1420 Wallac Instruments), an initial reading (T=0) was made approximately 1–2 min after addition of the substrate solution, employing excitation at 485 nm and emission at 530 nm, to determine the background fluorescence of the control sample. After approximately 3 h of incubation, the samples were read for fluorescence as above (T=3 h).
The Relative Fluorescence Unit values (RFU) were used to calculate the sample readings as follows: RFU(T=3h)−Control RFU(T=0)=Net RFU(T=3h)
The activity of caspase cascade activation was determined by the ratio of the net RFU value for derivatives of gambogic acid to that of control samples. The EC50 (nM) was determined by a sigmoidal dose-response calculation (Prism 2.0, GraphPad Software Inc.).
Methyl 9,10-dihydro-10-morpholinyl-gambogate and gambogic acid were assayed as described in Example 28 in T47D cells. The samples of cells and testing compound were incubated for 5 h and 24 h, respectively. Table II summarizes the caspase activity (Ratio) and potency (EC50) of methyl 9,10-dihydro-10-morpholinyl-gambogate (compound B) in the 5 h and 24 h assays, in comparison with that of gambogic acid (compound A).

[1] = Conversion of methyl 9,10-dihydro-10-morpholinyl-gambogate to methyl gambogate in biological media (HPLC); type: physicochemical
Description: A solution of methyl 9,10-dihydro-10-morpholinyl-gambogate in 87.5% RPMI 1640 biological Media (Invitrogen Corporation, Carlsbad, Calif.), 5.6% EtOH, 1.3% DMSO, and 5.6% Cremophor EL at a concentration of 5 mg/ml was stored at 37° C. The amount of methyl 9,10-dihydro-10-morpholinyl-gambogate (compound B) and methyl gambogate (compound C) was measured by integration of the peak area. The HPLC was run in the Beckman System Gold with 32 Karate software under the following conditions: […]

ICR (CD-1) mice = assay: Maximum tolerated dose (MTD) in mice, I.V.; type: in vivo; settings: mouse, in vivo
Description: For acute toxicity studies, 3 ICR (CD-1) mice were used per each dose group. Animals were given a single bolus injection in the tail vein with approximately 100 μl volume of compound formulation or vehicle formulation. Mice body weights were measured daily along with daily observation for clinical abnormalities. The maximum tolerated dose (MTD) was defined as the dose that results in less than 10% decrease in body weight with no clinical abnormalities.
For multiple dose studies, the animals were dosed once a day for 5 days.
Table IV summarizes the MTD of gambogic acid and methyl 9,10-dihydro-10-morpholinyl-gambogate in mice by I.V. administration.

[2] = Pharmacokinetic studies in mice (plasma, LC/MS/MS); type: in vivo, ICR mice; settings: mice, single I.V. dose 50 mg/kg
Description: ICR mice were administered a single dose of drug into the tail vein. At each time point, 3 animals were sacrificed and the blood was withdrawn by cardiac puncture. The blood cells were spun down and the plasma was collected and frozen immediately in liquid nitrogen. For sample processing, the plasma was thawed and extraction solvent was added along with an internal standard to assess recoveries. The samples were vortexed followed by centrifugation, and the extraction solution was collected and subjected to LC/MS/MS analysis to identify and quantitate the compound plasma concentration. The levels of compound from the three animals at each time point were averaged and the pharmacokinetic parameters calculated using WinNonLin program. Table V summarized the major PK parameters.

MX-1 (Breast cancer) = assay: Efficacy in human tumor xenograft mouse model MX-1; type: in vivo, human tumor in CD1 nu/nu mice; settings: MX-1 xenograft, 50 mg/kg, every day, I.V.
Description: (§1) CD1 nu/nu mice were used. Viable tumor bits of transplantable human xenografts approximately 50 mg of trocar or cultured human tumor cells (nx106 cells?) were implanted subcutaneously into the flank region of mice and tumors were allowed to grow to the desired average size of 100 mg. The mice were measured for tumor size and those within the accepted tumor range of 75–125 mg, were randomized into control and treatment groups with 8–9 mice per group. Treatment was initiated on these groups which have an average starting tumor size of 100 mg. The control group was injected with the vehicle used to dissolve the drug. Injections were I.V. via the tail vein. Tumor measurements were taken every other day along with weights of animals and all animals were observed daily for survival. Tumor size was calculated by the equation of: Tumor volume=(length×width^2)/2.

[3] = system: SW620 (colorectal cancer); assay: Efficacy in human tumor xenograft mouse model SW620; type: in vivo, human tumor in CD1 nu/nu mice; settings: 75 mg/kg, every day, I.V.
Description: as §1

[4] = system: human tumor xenograft models; assay: Efficacy studies in human tumor xenograft models (text summary, model not named); type: in vivo, human tumor in nu/nu mice
Description: as §1

## COC(=O)C(C)=CCC12OC(C)(C)C3CC(C1=O)C(N1CCOCC1)C1C(=O)c4c(O)c5c(c(CC=C(C)C)c4OC132)OC(C)(CCC=C(C)C)C=C5 (stereo not drawn) [B, Methyl 9,10-dihydro-10-morpholinyl-gambogate]
T-47D; 5 h assay
  Activity in the caspase activation / apoptosis induction assay (in words), 5 h: not active
  Caspase activity (Ratio), 5 h: 1.2
T-47D; 5 h assay, read-out: Caspase potency EC50, 5 h
  EC50: > 10 µM
T-47D; 24 h assay
  Activity in the caspase activation / apoptosis induction assay (in words), 24 h: active
  Caspase activity (Ratio), 24 h: 19
T-47D; 24 h assay, read-out: Caspase potency EC50, 24 h
  EC50: 3.8 µM
[1]; 37° C., RPMI biological media
  Conversion to methyl gambogate (reversal of Michael addition) in biological media (in words): reverse to methyl gambogate; also recorded: converted slowly
[1]; solution of compound B 5 mg/ml in 87.5% RPMI 1640, 37° C., HPLC peak area, 0 h
  Amount in biological media, 0 h: 92
[1]; solution of compound B 5 mg/ml in 87.5% RPMI 1640, 37° C., HPLC peak area, 2 h
  Amount in biological media, 2 h: 92
[1]; solution of compound B 5 mg/ml in 87.5% RPMI 1640, 37° C., HPLC peak area, 18 h
  Amount in biological media, 18 h: 72
[1]; solution of compound B 5 mg/ml in 87.5% RPMI 1640, 37° C., HPLC peak area, 48 h
  Amount in biological media, 48 h: 49
[1]; solution of compound B 5 mg/ml in 87.5% RPMI 1640, 37° C., HPLC peak area, 90 h
  Amount in biological media, 90 h: 28
ICR (CD-1) mice
  Acute MTD: >100 mg/kg
  Injection site toxicity: substantially reduced
ICR (CD-1) mice; iv
  Multiple Dose MTD: Once a day, 5 doses: >100 mg/kg
  Systemic toxicity / tolerability (in words): significantly less systemic toxicity than gambogic acid
[2]
  CL, Clearance: 0.14 L/h/kg
  T1/2, Terminal half-life: 27.6 h
  Vss, Vol. of distribution: 2.12 L/kg
[2]; plasma
  AUC (0-inf), Area under the curve: 353,021 ng-h/ml
MX-1 (Breast cancer)
  % Tumor reduction: 60%
[3]
  % Tumor reduction: 58%
[4]; several human tumor xenograft models
  Body weight loss / behavioral changes in efficacy studies: no significant body weight loss or abnormal behavioral changes
[4]; summary of Table VI, gambogic acid at its maximal tolerable dose
  Efficacy (in words): good efficacy
